The conditions of series [1]: Recent Progress in Hormone Research, Volume XIII, 389-396, Fig. 1 and Fig. 4; cited from earlier work.
Series [2] is classed as in vivo, Paviane. The following applies: 50 mg i.m. in 1 ml Rizinusöl/Benzylbenzoat (6:4), female baboons. Here is the method:
Die gleichmäßige, anhaltende Bereitstellung von Testosteron aus den erfindungsgemäßen Estern kann durch Bestimmung der Testosteronkonzentration im Plasma mittels Radioimmunoassay nachgewiesen werden.
Zu diesem Zweck erhielten zwei weibliche Paviane je 50 mg Testosteron-O-hexadecanoylglykolat in 1 ml Rizinusöl/Benzylbenzoat (6:4) intramuskular. Die Testosteron-Plasmaspiegel lagen zwischen dem 2. und 40. Tag im Bereich zwischen 15 und 25 ng/ml Plasma.

Series [3] in a line: Testosterone plasma concentration (radioimmunoassay) and bioavailability after oral application in peanut oil, female dogs; i.m. testosterone as the reference. It counts as in vivo, Hunden. Here is the method: Es wurde der zeitliche Verlauf der Testosteronkonzentration im Plasma von weiblichen Hunden von ca. 10 kg Gewicht nach oraler Applikation von 50 mg Testosteron-0-hexadecanoylglykolat (= 25 mg Testosteron) und von 40 mg Testosteronundecylat (= 25 mg Testosteron) im Vergleich zur […] Applikation von 25 mg Testosteron gemessen. Die Testosteronbestimmung im Plasma erfolgte mittels Radioimmunoassay. Zur Applikation wurden die geprüften Substanzen in Erdnußöl gelöst.
Die Bioverfügbarkeit wurde berechnet als Quotient der Flächen unter der Testosteronplasmaspiegelkurve (0-8 Stunden) nach oraler Applikation der geprüften Substanzen und der Fläche unter der Testosteronplasinaspiegelkurve nach intramuskulärer Applikation von Testosteron.

Molecules are shown by their SMILES.

As for `CCCCCCCCCC(=O)CC(=O)O[C@H]1CC[C@H]2[C@@H]3CCC4=CC(=O)CC[C@]4(C)[C@H]3CC[C@]12C` [Testosteroncaprinoylacetat], in series [1], the “Wirkung (Verlauf) im Vergleich zu Testosteronönanthat” value (“Wirkung” for short) is recorded as “über 6 Wochen etwas gleichmäßigere aber insgesamt geringere Wirkung”.

As for `CCCCCCCCCCC(=O)O[C@H]1CC[C@H]2[C@@H]3CCC4=CC(=O)CC[C@]4(C)[C@H]3CC[C@]12C` [Testosteronundecylat], the “Wirkung” value in series [1] is on record as “etwas gleichmäßigere Wirkung als Testosteronönanthat”.

Turning to `CCCCCCCCCCCCCCCC(=O)OCC(=O)O[C@H]1CC[C@H]2[C@@H]3CCC4=CC(=O)CC[C@]4(C)[C@H]3CC[C@]12C` [Testosteron-O-hexadecanoylglykolat], the “Freisetzung des Testosterons aus dem Depot” value in series [2] is listed as “fast vollständig freigesetzt”.

With `CCCCCCC(=O)O[C@H]1CC[C@H]2[C@@H]3CCC4=CC(=O)CC[C@]4(C)[C@H]3CC[C@]12C` [Testosteronönanthat], in series [1], the “Wirkung” value is given as “besonders hohe initiale Wirkung zeigt, die relativ rasch abfällt”.

For the molecule `C[C@]12CC[C@H]3[C@@H](CCC4=CC(=O)CC[C@@]43C)[C@@H]1CC[C@@H]2O` [Testosteron (T), Testosteron], the AUC at 8 h in series [3] (dog, plasma, oral, in Erdnußöl, dose ≙ 25 mg Testosteron, female dogs ca. 10 kg, testosterone by radioimmunoassay, read-out: Fläche unter Plasma-spiegel (0 – 8 h)) was 10.6 ng·h/mL. The “Bioverfügbarkeit bezogen auf i.m. Applikation” value in series [3] (in vivo) was 1,29%.

The values above are taken from patent EP0003794B1, “Testosterone esters, process for their preparation and pharmaceutical compositions containing them” (priority 1978, dated 1979).
